Test results reported in patent US20260008760A1, “DIPEPTIDYL PEPTIDASE 1 INHIBITORS AND USES THEREOF” (Insmed Incorporated, priority 2024, published 2026).

How the values were obtained:
[1] = target: DPP1 in HL-60 cells (Homo sapiens, UniProt P53634); test: DPP1 Cell IC50 assay; assay type: cell-based; set-up: host or cells: HL-60 cells; conditions: 60 min pre-incubation, H-Gly-Phe-AFC substrate, average of n runs, read-out: Avg. IC50 (DPP1 Cell IC50 value ranges)
Summary of the method: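 HL-60 cells in PBS (5×10^5 live cells per mL) pre-incubated with compound (0.5% DMSO) 60 min at 37° C, 5% CO2, then H-Gly-Phe-AFC substrate (500 μM stock) added for 30 min. Fluorescence at 400/505 nm; % inhibition vs vehicle wells, IC50 from four-parameter logistic fit.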

[2] = target: T1, active mouse DPP1 enzyme (Mus musculus, UniProt P97821); test: Mouse DPP1 Enzyme IC50 Assay; assay type: biochemical; conditions: active mouse DPP1 enzyme, H-Gly-Arg-AMC substrate, 10 minutes pre-incubation at 37° C., pH 5.5; average of n runs; read-out: Avg. IC50 (Mouse DPP1 enzyme IC50 value ranges)
T1 construct: Each subunit is composed of an N-terminal fragment, a heavy chain and a light chain; purchased R&D Systems
Experimental: Example 96: Mouse DPP1 Enzyme IC50 Assay
Test articles were applied to active mouse DPP1 enzyme (R&D Systems; Minneapolis, MN) in Assay Buffer (50 mM MES pH 5.5, 50 mM NaCl, 5 mM DTT) in a total reaction volume of 125 μL. 25 μL of compound in Assay Buffer plus […] was first added to 50 μL of active mouse DPP1 enzyme at a concentration of 62.5 pg/μL and allowed to pre-incubate for 10 minutes at 37° C. after which 50 μL of […] H-Gly-Arg-AMC substrate (Bachem; St. Torrance, CA) was added, giving final substrate concentration of 400 µM and a final DMSO concentration of […]. Substrate cleavage was measured for 90 minutes at 37° C., with fluorescence at Excitation/Emission 350/450 nm measured every 5 minutes. DPP1 concentration was interpolated based on its activity relative to a standard curve of recombinant active mouse DPP enzyme. IC50 values for each compound were calculated via the XLFit (IDBS Version 5.3.1.3) Add-On to Microsoft Excel using the four parameter fit equation y=(A+((B−A)/(1+((C/x)^D)))), which appears as equation number 205 (4 Parameter Logistic Model or Sigmoidal Dose-Response Model) in XLFit. Default constraints were used for each Parameter. IC50 was defined as the compound concentration at which 50% of enzyme activity was inhibited when compared to the no-compound control.
In Table 2, *** represent average IC50≤5 nM, ** represents average IC50 in the range of 5-20 nM, and * represents average IC50 in the range of ≥20 nM, where the designations were made solely based on the average value without taking into account of the standard deviations.

[3] = target: human DPP1 enzyme (Homo sapiens, UniProt P53634); test: Human DPP1 Enzyme IC50 Assay; assay type: biochemical; set-up: was first proteolytically processed into its mature form using recombinant human cathepsin L; purchased R&D Systems; conditions: activated recombinant human DPP1, 400 μM H-Gly-Arg-AMC, 10 minutes pre-incubation at 37° C., pH 6.0; average of n runs; read-out: Avg. IC50 (Human DPP1 enzyme IC50 value ranges)
Summary of the method: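 Recombinant human DPP1, pre-activated with cathepsin L (pH 4.5), was preincubated with compound 10 min at 37 °C in MES pH 6.0, 50 mM NaCl, 5 mM DTT, 1% DMSO. Cleavage of 400 μM (final) H-Gly-Arg-AMC followed by fluorescence (350/450 nm) over 90 min at 37 °C; IC50 from four-parameter logistic fit versus no-compound control.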

T1 sequence (P97821 25-134 limits assumed): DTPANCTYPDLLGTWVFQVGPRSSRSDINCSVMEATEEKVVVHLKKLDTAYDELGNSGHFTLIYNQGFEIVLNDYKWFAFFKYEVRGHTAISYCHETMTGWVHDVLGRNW
T1 sequence (P97821 231-393 limits assumed): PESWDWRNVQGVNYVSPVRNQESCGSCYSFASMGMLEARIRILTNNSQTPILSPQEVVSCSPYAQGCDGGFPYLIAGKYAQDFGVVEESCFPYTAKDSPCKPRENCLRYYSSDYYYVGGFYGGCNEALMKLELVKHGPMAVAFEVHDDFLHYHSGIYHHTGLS
T1 sequence (P97821 394-462 limits assumed): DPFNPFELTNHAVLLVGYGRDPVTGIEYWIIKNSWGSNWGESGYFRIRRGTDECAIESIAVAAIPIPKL
human DPP1 enzyme, sequence (P53634 25-134 limits assumed): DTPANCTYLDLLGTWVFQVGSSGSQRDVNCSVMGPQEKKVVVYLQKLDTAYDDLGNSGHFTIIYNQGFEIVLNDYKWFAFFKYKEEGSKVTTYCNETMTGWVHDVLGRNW
human DPP1 enzyme, sequence (P53634 231-394 limits assumed): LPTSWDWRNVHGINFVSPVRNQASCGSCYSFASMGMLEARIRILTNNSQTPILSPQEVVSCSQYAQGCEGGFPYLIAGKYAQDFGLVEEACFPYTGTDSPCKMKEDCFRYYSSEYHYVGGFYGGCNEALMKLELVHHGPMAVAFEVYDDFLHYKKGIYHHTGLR
human DPP1 enzyme, sequence (P53634 395-463 limits assumed): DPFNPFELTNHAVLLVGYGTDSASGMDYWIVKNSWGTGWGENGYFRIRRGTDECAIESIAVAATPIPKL
DPP1 in HL-60 cells, sequence (P53634 25-463): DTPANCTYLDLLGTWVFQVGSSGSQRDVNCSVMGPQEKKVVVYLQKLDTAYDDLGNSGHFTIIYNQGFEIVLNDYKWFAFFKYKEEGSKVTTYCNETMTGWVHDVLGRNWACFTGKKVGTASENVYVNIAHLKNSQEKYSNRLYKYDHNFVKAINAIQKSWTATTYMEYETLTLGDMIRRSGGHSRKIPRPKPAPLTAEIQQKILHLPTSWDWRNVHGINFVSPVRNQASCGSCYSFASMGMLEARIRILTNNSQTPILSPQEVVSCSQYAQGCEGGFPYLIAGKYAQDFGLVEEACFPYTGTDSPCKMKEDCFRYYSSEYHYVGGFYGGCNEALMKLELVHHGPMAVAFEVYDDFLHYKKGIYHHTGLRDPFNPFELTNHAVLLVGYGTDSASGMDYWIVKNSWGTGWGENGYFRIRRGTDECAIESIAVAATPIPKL

SMILES	IC50 [1]	IC50 [2]	IC50 [3]
N#C[C@H](Cc1cc2c(cc1F)-c1cc(C3COC3)c(F)cc1CO2)NC(=O)[C@@H]1CNCCCCO1 [Compound B10-B]	1 to 2.5 nM	< 5 nM	5 to 15 nM
Cc1nc(-c2ccc(C[C@@H](C#N)NC(=O)[C@@H]3CNCCCO3)cc2)sc1C#N [Compound 10, (2S)—N-[(1S)-1-cyano-2-[4-(5-cyano-4-methyl-1,3-thiazol-2-yl)phenyl]ethyl]-1,4-oxazepane-2-carboxamide]	> 2.5 nM	> 20 nM	> 15 nM
N#C[C@H](Cc1ccc(-c2ccc(S(F)(F)(F)(F)F)cc2)cc1)NC(=O)[C@@H]1CNCCCO1 [Compound 6, (S)—N—((S)-1-cyano-2-(4′-(pentafluoro-16-sulfaneyl)-[1,1′-biphenyl]-4-yl)ethyl)-1,4-oxazepane-2-carboxamide]	> 2.5 nM	> 20 nM	> 15 nM
